In brackets after ≈: the same amount, converted by molar mass. Read-outs that look alike come from different tables or passages of the source.
What was measured:
E. faecalis CSJ 1212 = assay: In vitro antibacterial activity (MIC), E. faecalis CSJ 1212; format: cell-based; settings: Enterococcus faecalis
Method: (§1) The in vitro antibacterial activity of the compound of the present invention against various experimental microorganism was measured using sensitive disc media (produced by Eiken Chemical Co.) according to the MIC measuring method specified by the Japan Chemotherpeutic Society. Comparative drug 1:3-deoxy-11-{2-[methyl(benzyl)amino]ethyl}amino-3-oxo-5-O-desosaminyl-6-O-methylerythronolide A 11-N,12-O-cyclic carbamate (described in EP patent No. 0487411), Comparative drug 2:3-deoxy-3-oxo-5-O-desosaminyl-6-O-methylerythronolide A 11,12-cyclic carbonate (described in EP patent No. 0487411), Comparative drug 3:6-O-methylerythromycin A and Comparative drug 4:azithromycin were used.

S. aureus B1 = assay: In vitro antibacterial activity (MIC), S. aureus B1; format: cell-based; settings: Staphylococcus aureus
Method: as §1

S. aureus Smith 4 [1] = assay: In vitro antibacterial activity (MIC), S. aureus Smith 4; format: cell-based; settings: Staphylococcus aureus
Method: as §1

H. influenzae ATCC19418 = assay: In vitro antibacterial activity (MIC), H. influenzae ATCC19418; format: cell-based; settings: Haemophilus influenzae, sensitive disc media, read-out: MIC value (Minimum Inhibitory Concentration)
Method: as §1

S. aureus 209P-JC = assay: In vitro antibacterial activity (MIC), S. aureus 209P-JC; format: cell-based; settings: Staphylococcus aureus, read-out: MIC value (Minimum Inhibitory Concentration)
Method: as §1

S. aureus Smith 4 [2] = assay: In vivo antibacterial activity: protection effect against infection with S. aureus Smith 4 in mice; parameters: species or system male ICR mice; settings: oral, 1 hour after inoculation, 7 days
Method: The injection protection effect of the compound of the present invention against infectious bacteria (S. aureus Smith 4) was studied using 8 male ICR mice, 4-week-old, for each group and using Comparative drugs 1, 2 and 3 (as described in Experiment 1). Infectious bacteria (S. aureus Smith 4) were incubated for 18 hours, and diluted with a saline solution containing 5% mucin and heart infusion agar, and 0.5 ml of which was inoculated intraperitoneally to mice. An hour after inoculation of bacteria, the drug suspended in 5% gum arabic was administered orally, followed by judgement of life and death during 7 days.

[3] = Concentration in mouse serum after oral administration; format: in vivo, male ICR mice; settings: dose not given; for AUC / Cmax: mouse serum; for concentration at 0.25 h / concentration at 0.5 h / concentration at 1 h / concentration at 2 h / concentration at 4 h / concentration at 6 h: mouse, serum; for concentration at 0.5 h: 0.50 hr
Method: Concentration of the compound of the present invention in mouse serum was determined by using 10 male ICR mice, 4-week-old, for each group and using Comparative drugs 2 and 3 (as described in Experiment 1). The drug suspended in 5% gum arabic was administered orally to mice, the blood was collected with lapse of time, and the serum was separated. Concentration of the drug in the serum was measured by using M. luteus ATCC 9341 as approved bacteria according to the papar-disc method.

[4] = S. aureus B1, sensitive disc media, read-out: MIC value (Minimum Inhibitory Concentration)
[5] = SMITH4, S. aureus Smith 4, sensitive disc media, read-out: MIC value (Minimum Inhibitory Concentration)
[6] = CSJ1212, E. faecalis CSJ 1212, sensitive disc media, read-out: MIC value (Minimum Inhibitory Concentration)
[7] = B1, read-out: MIC value (Minimum Inhibitory Concentration)
[8] = S. aureus 209P-JC, sensitive disc media

Row | Compound | MIC (S. aureus B1; [4]) [µg/mL] | MIC (S. aureus Smith 4 [1]; [5]) [µg/mL] | MIC (H. influenzae ATCC19418) [µg/mL] | MIC (S. aureus 209P-JC; 209P) [µg/mL] | Number of Survival (n = 8) (S. aureus Smith 4 [2]; 0.1 mg/mouse) | Number of Survival (n = 8) (S. aureus Smith 4 [2]; 0.4 mg/mouse) | Number of Survival (n = 8) (S. aureus Smith 4 [2]; 1.6 mg/mouse) | MIC (E. faecalis CSJ 1212; [6]) [µg/mL] | MIC (S. aureus B1; [7]) [µg/mL] | MIC (S. aureus 209P-JC; [8]) [µg/mL] | AUC [3] [ng·h/mL] | Cmax [3] [ng/mL] | concentration at 0.25 h [3] [ng/mL] | concentration at 0.5 h [3] [ng/mL] | concentration at 1 h [3] [ng/mL] | concentration at 2 h [3] [ng/mL] | concentration at 4 h [3] [ng/mL] | concentration at 6 h ([3]; 6 hr) [ng/mL] | other results
1 | CC[C@H]1OC(=O)[C@H](C)C(=O)[C@H](C)[C@@H](O[C@@H]2O[C@H](C)C[C@H](N(C)C)[C@H]2O)[C@](C)(OC)C[C@@H](C)C(=O)[C@H](C)[C@H]2N(CCN(C)Cc3ccccc3)C(=O)O[C@]12C [Comparative drug 1, 3-deoxy-11-{2-[methyl(benzyl)amino]ethyl}amino-3-oxo-5-O-desosaminyl-6-O-methylerythronolide A 11-N,12-O-cyclic carbamate] | 0.39 (≈ 0.513 µM) | 0.1 (≈ 0.132 µM) | 6.25 (≈ 8.22 µM) | 0.1 (≈ 0.132 µM) | 2 | 2 | 7 | – | – | – | – | – | – | – | – | – | – | – | MIC (E. faecalis CSJ 1212; CSJ1212, read-out: MIC value (Minimum Inhibitory Concentration)): 0.1 µg/mL (≈ 0.132 µM)
2 | CC[C@H]1OC(=O)[C@H](C)[C@@H](O[C@H]2C[C@@](C)(OC)[C@@H](O)[C@H](C)O2)[C@H](C)[C@@H](O[C@@H]2O[C@H](C)C[C@H](N(C)C)[C@H]2O)[C@](C)(OC)C[C@@H](C)C(=O)[C@H](C)[C@@H](O)[C@]1(C)O [Comparative drug 3, 6-O-methylerythromycin A] | – | 0.1 (≈ 0.134 µM) | 12.5 (≈ 16.7 µM) | – | 3 | 6 | 8 | 3.13 (≈ 4.18 µM) | > 100 | 0.1 (≈ 0.134 µM) | 880 | 340 | 290 | 330 | 340 | 110 | 110 | 40 | –
3 | CC[C@H]1OC(=O)[C@H](C)[C@@H](O[C@H]2C[C@@](C)(OC)[C@@H](O)[C@H](C)O2)[C@H](C)[C@@H](O[C@@H]2O[C@H](C)C[C@H](N(C)C)[C@H]2O)[C@](C)(O)C[C@@H](C)CN(C)[C@H](C)[C@@H](O)[C@]1(C)O [Comparative drug 4, azithromycin] | > 100 | 0.39 (≈ 0.521 µM) | 6.25 (≈ 8.34 µM) | – | – | – | – | 6.25 (≈ 8.34 µM) | – | 20 (≈ 26.7 µM) | – | – | – | – | – | – | – | – | –
4 | CC[C@H]1OC(=O)[C@H](C)C(=O)[C@H](C)[C@@H](O[C@@H]2O[C@H](C)C[C@H](N(C)C)[C@H]2O)[C@](C)(OC)C[C@@H](C)C(=O)[C@H](C)[C@H]2NC(=O)O[C@@]21C [Compound 1, 11-amino-3,11-dideoxy-3-oxo-5-O-desosaminyl-6-O-methylerythronolide A 11-N,12-O-cyclic carbamate] | – | – | 6.25 (≈ 10.2 µM) | 0.05 (≈ 0.0816 µM) | 8 | 8 | 8 | 0.05 (≈ 0.0816 µM) | 0.2 (≈ 0.326 µM) | – | 2900 | 1170 | 230 | 1170 | 770 | 600 | 440 | 50 | MIC (S. aureus Smith 4 [1]; SMITH4, read-out: MIC value (Minimum Inhibitory Concentration)): 0.1 µg/mL (≈ 0.163 µM)
5 | CC[C@H]1OC(=O)[C@H](C)C(=O)[C@H](C)[C@@H](O[C@@H]2O[C@H](C)C[C@H](N(C)C)[C@H]2O)[C@](C)(OC)C[C@@H](C)C(=O)[C@H](C)[C@H]2OC(=O)O[C@@]21C [Comparative drug 2, 3-deoxy-3-oxo-5-O-desosaminyl-6-O-methylerythronolide A 11,12-cyclic carbonate] | 1.56 (≈ 2.54 µM) | 0.1 (≈ 0.163 µM) | 25 (≈ 40.7 µM) | – | 2 | 8 | 8 | 0.05 (≈ 0.0815 µM) | – | 0.1 (≈ 0.163 µM) | 1370 | 410 | 310 | 410 | 270 | 280 | 260 | – | Concentration in mouse serum ([3]; 6 hr): 0 µg/mL
